Measured values as given in patent US20220289724A1, “KIF18A INHIBITORS” (AMGEN INC., priority 2019, published 2022).

Biological target: T1, Recombinant human KIF18A (1-467 His-tagged) protein (Homo sapiens, UniProt Q8NI77)
T1 construct: Recombinant human KIF18A (1-467 His-tagged) protein; His; made in house
Experiment: KIF18A Enzyme Assay: microtubule-stimulated ATPase activity assay (ADP-Glo)
Assay type: biochemical
Conditions: KIF18A protein 30 nM, 30 μg/mL pig microtubules, ATP at Km 75 μM, ADP-Glo luminescence, RT
Text: KIF18A Enzyme Assay: Microtubule-stimulated ATPase activity assay is used to measure KIF18A enzyme activity after treatment with compound. Compounds were 2-fold serially diluted in DMSO (Sigma Inc) over 22-point concentration range. Recombinant human KIF18A (1-467 His-tagged) protein was expressed using a baculovirus system and purified by affinity chromatography by Amgen Inc. Concentrations of KIF18A protein, microtubules (MT), and ATP in the reaction were optimized for standardized homogenous enzyme assay using ADP-Glorm Kinase/ATPase Assay Kit (Promega Inc). The assay measures ADP formed from the ATPase reaction. […] Concentration-response curve-fitting and IC50 determination was performed using Genedata Screener Software (Standard 15.0.1, Genedata Inc) with a four-parameter logistic regression fit model.
Table A provides data for compounds exemplified in the present application and priority document thereof, as representative compounds of the present invention, as follows: chemical name (as named by either ACD software or ChemDraw (Professional 15.0)) and biological data (IC50 in μM). Ex. […] refers to Example No.

T1 sequence (Q8NI77 1-467): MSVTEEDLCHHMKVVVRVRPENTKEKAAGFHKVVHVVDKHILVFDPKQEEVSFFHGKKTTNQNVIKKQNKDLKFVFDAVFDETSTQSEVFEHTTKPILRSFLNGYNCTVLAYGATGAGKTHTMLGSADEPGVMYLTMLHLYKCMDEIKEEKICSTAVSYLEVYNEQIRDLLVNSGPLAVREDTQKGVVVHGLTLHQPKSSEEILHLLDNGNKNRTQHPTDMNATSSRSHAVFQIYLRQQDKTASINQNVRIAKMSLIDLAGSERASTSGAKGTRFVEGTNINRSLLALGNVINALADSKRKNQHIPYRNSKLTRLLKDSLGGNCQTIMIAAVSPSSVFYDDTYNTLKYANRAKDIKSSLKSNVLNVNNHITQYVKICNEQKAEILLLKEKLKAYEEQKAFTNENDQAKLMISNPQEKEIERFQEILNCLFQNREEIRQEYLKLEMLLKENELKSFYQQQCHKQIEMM
T1 sequence (P02550 whole entry partner): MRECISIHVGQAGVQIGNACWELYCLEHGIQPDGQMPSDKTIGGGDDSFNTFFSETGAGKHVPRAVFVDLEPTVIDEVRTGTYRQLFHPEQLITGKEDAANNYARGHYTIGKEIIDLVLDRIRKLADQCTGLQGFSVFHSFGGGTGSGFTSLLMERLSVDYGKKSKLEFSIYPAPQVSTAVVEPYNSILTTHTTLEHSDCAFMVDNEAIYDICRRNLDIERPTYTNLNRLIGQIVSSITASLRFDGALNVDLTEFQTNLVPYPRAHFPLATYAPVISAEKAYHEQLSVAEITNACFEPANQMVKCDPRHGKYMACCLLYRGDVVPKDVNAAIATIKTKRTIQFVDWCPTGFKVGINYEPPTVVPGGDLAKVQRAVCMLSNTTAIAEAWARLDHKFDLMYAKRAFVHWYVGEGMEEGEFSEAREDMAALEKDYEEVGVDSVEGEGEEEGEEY
T1 sequence (P02554 whole entry partner): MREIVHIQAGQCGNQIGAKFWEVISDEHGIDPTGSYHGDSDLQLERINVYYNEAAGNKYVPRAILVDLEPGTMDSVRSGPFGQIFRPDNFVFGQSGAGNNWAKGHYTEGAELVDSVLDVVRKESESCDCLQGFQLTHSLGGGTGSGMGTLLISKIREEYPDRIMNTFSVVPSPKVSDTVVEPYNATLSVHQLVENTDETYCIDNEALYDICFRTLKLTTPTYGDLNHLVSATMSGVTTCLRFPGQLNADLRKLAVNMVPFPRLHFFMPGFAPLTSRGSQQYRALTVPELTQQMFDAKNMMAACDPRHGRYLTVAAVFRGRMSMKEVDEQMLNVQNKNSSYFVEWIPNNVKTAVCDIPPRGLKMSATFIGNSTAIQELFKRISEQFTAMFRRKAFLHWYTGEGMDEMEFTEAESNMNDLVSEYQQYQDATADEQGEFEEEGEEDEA

SMILES	IC50 [nM]
CC(C)(C)[S@](=N)(=O)c1cccc(NC(=O)c2ccc(NS(=O)(=O)CCO)cc2N2CCC3(CC2)CC3)c1 [Example 114-2, (S)-4-((2-hydroxyethyl)sulfonamido)-N-(3-(2-methylpropan-2-ylsulfonimidoyl)phenyl)-2-(6-azaspiro[2.5]octan-6-yl)benzamide]	323
O=C(Nc1ccc(NS(=O)(=O)CCO)cc1N1CCC2(CC1)CC2)c1cccc(N2CCCCC2)c1 [Example 115, N-(4-((2-Hydroxyethyl)sulfonamido)-2-(6-azaspiro[2.5]octan-6-yl)phenyl)-3-(piperidin-1-yl)benzamide]	26
